{"source": "paper PMC3009454", "about": "(Bioconjugate chemistry, 2009)", "origin": "cited, not measured here", "test_system": "primary melanoma and pulmonary melanoma metastases", "settings": "small animal SPECT/CT", "data": [{"substance": "^111In-1,4,7,10-tetraazacyclododecane-1,4,7,10-tetraacetic acid-c[Lys-Nle-Glu-His-DPhe-Arg-Trp-Gly-Arg-Pro-Val-Asp] (sidechain bridge or staple) [^111In-DOTA-GlyGlu-CycMSH]", "values": [{"measurement": "SPECT/CT visualization of primary melanoma and pulmonary melanoma metastases", "result": "clearly visualized"}]}]}
